{
  "source": "ChEMBL document CHEMBL1201862",
  "about": "“PubChem BioAssay data set” (2004)",
  "key": {"[1]": {"molecular_target": "Apoptotic protease-activating factor 1 (Homo sapiens, UniProt O14727)", "sequence (O14727 whole entry)": "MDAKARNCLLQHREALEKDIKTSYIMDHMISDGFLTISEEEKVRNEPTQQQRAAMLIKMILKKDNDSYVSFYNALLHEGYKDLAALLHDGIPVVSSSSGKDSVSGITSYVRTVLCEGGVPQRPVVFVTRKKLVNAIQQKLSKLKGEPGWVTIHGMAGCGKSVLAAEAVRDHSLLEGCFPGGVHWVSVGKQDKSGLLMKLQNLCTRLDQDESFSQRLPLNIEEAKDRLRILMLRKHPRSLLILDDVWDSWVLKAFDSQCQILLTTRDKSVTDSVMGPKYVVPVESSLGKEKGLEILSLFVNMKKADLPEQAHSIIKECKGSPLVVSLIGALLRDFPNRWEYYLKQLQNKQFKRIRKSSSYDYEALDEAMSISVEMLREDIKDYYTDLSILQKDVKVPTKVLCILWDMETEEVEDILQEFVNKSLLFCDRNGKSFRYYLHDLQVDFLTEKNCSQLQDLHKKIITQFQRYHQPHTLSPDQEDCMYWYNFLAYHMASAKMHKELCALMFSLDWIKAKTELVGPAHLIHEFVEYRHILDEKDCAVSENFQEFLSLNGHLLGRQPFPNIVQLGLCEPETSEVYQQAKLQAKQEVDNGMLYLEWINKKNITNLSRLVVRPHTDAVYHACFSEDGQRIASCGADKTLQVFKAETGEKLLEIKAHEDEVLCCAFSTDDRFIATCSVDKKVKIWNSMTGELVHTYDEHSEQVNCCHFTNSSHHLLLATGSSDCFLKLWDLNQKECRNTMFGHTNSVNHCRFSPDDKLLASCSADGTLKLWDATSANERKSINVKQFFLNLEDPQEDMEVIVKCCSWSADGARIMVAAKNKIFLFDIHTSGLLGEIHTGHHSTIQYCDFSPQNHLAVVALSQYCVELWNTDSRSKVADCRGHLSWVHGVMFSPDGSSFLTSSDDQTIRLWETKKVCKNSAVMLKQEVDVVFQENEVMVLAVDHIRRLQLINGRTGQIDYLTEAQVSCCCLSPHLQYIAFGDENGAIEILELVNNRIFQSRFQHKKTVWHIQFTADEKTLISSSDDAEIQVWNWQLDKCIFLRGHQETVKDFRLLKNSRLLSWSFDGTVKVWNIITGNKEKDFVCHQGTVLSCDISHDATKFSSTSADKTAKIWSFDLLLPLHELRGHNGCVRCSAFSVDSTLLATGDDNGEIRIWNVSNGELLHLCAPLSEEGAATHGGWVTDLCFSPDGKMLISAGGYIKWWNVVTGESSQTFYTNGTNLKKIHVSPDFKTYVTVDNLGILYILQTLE", "type": "functional"}, "[2]": {"molecular_target": "Glycogen synthase kinase-3 alpha (Homo sapiens, UniProt P49840)", "sequence (P49840 whole entry)": "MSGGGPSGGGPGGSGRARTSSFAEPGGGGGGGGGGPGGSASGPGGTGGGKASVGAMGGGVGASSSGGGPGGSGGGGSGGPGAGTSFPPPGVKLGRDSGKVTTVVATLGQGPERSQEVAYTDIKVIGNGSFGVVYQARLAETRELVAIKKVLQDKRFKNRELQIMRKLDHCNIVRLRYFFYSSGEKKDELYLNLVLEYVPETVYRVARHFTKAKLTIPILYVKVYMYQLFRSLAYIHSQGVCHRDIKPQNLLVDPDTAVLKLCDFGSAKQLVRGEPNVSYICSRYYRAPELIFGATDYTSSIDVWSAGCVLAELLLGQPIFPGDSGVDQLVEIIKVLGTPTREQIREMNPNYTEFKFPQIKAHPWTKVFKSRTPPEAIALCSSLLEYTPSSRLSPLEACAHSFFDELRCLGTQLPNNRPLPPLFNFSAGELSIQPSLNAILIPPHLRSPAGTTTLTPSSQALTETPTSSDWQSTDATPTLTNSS", "assay": "Inhibition of Human GSK-3 alpha Activity Measured in Biochemical System Using Microfluidics - 2063-06_Inhibitor_Dose_DryPowder_Activity_Set2. [Related pubchem assays (depositor defined):AID2709]"}, "[3]": {"molecular_target": "Glycogen synthase kinase-3 beta (Homo sapiens, UniProt P49841)", "sequence (P49841 whole entry)": "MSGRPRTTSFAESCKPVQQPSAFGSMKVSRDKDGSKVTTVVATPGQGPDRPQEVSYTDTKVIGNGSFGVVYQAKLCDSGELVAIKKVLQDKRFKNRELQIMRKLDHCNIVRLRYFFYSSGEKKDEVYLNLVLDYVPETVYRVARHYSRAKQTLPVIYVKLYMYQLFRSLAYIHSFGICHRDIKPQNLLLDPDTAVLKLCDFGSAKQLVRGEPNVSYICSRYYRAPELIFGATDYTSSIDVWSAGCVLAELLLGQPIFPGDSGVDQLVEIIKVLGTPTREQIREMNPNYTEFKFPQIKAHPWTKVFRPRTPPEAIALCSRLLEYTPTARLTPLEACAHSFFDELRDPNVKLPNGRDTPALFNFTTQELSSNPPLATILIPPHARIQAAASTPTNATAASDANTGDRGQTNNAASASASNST", "assay": "Inhibition of Human GSK-3 beta Activity Measured in Biochemical System Using Microfluidics - 2063-05_Inhibitor_Dose_DryPowder_Activity_Set2. [Related pubchem assays (depositor defined):AID2709]"}, "[4]": {"test_system": "INS1", "assay": "inhibitors of cytokine-induced nitrite release, dose response, cell-based, Griess absorbance, INS-1E, dry powder, set 2 (AID 488868)", "type": "functional", "details": "Rattus norvegicus"}, "[5]": {"test_system": "INS1", "assay": "protection from cytokine-driven beta-cell apoptosis, dose response, JC-1 fluorescence, INS-1E, dry powder, set 2 (AID 488867)", "type": "functional, cell-based", "details": "Rattus norvegicus"}, "[6]": {"test_system": "INS1", "assay": "protection of INS-1E cells from cytokine death, dose response, ATP luminescence, dry powder (AID 488844)", "type": "functional, cell-based", "details": "Rattus norvegicus"}, "[7]": {"assay": "Vero cell cytotoxicity, cytotoxicity control for M. tuberculosis inhibitor project, purified and synthesized samples, set 8 (AID 602431)", "type": "functional", "details": "Mycobacterium tuberculosis"}, "[8]": {"assay": "THP-1 cell cytotoxicity, cytotoxicity control, set 6 (AID 602433)", "type": "functional", "details": "Mycobacterium tuberculosis"}},
  "note": "Active and inactive are the calls of the source. Unless noted, the rule behind the calls is not given here.",
  "data": [
    {"smiles": "Cc1ccc(-n2nc3ccc(N)cc3n2)cc1Cl", "values": [
      {"measurement": "IC50", "setting": "[1]", "value": "> 100 µM (inactive)"}
    ]},
    {"smiles": "Nc1nonc1-n1nnc(C(=O)N/N=C/c2ccccc2Cl)c1CN1CCOCC1", "values": [
      {"measurement": "AC50", "setting": "[2]", "value": "5.64 µM (active)"},
      {"measurement": "AC50", "setting": "[3]", "value": "2 µM (active)"}
    ]},
    {"smiles": "COc1ccc(S(=O)(=O)N(C)C[C@@H]2Oc3c(NC(=O)Nc4cccc5ccccc45)cccc3C(=O)N([C@H](C)CO)C[C@H]2C)cc1", "values": [
      {"measurement": "AC50", "setting": "[4]", "value": "74.5 µM (active)"},
      {"measurement": "AC50", "setting": "[5]", "value": "> 235 µM (inactive)"},
      {"measurement": "AC50", "setting": "[6]", "value": "18.4 µM (active)"}
    ]},
    {"smiles": "COc1ccc(NC(=O)NCc2ccc(C(=O)N3CCC(c4ccccc4)CC3)cc2)cc1", "values": [
      {"measurement": "CC50", "setting": "[7]", "value": "91.3 µM (active)"},
      {"measurement": "CC50", "setting": "[8]", "value": "> 98.9 µM (active)"}
    ]}
  ]
}
